These results are taken from US7022711B2, “2-(4-Pyridyl)amino-6-dialkoxyphenyl-pyrido[2,3-d]pyrimidin-7-ones” (Warner-Lambert Company, priority 2000, dated 2006).

The target in series [1] is T1, FGFR-1 (Homo sapiens, UniProt P11362).
T1 construct: The kinase domains from FGFR-1, VEGFR-2, Lck, and PDGF were purified from baculoviral vectors expression systems; made in house
The series is described as follows: Kinase inhibition assay (DELFIA), FGFr. Type of series: biochemical. The settings on record: 40 μM ATP, kinase domain 20 nM. The protocol:
(§1) The inhibition activity of the compounds in Examples 8, 9, 10, 11, and 12 and Reference Compounds A and B were evaluated using the Dissociated Enhanced Lanthanide Fluoroimmuno Assay (DELFIA) (Frank Loganzo and Carolyn Hardy. A sensitive, time-resolved fluorometric assay for the detection of inhibitors of phosphotyrosine kinases. American Biotechnology Laboratory, December 1998). DELFIA plates (EG&G Wallac, Gaithersburg, Md.) were coated overnight with Poly Glu Tyr (4:1) (Sigma, St. Louis, Mo.) at room temperature, washed (DELFIA wash reagent, EG&G Wallac), and spotted with 1 μL inhibitor dilution or DMSO carrier control per well. In some cases, kinase was autophosphorylated prior to analysis by incubating 45 minutes at 4° C. in the presence of 4 mM ATP and 25 mM MgCl2. A typical 100 μL kinase assay reaction contained 20 mM Tris (pH 7.5), 20 mM MgCl2, 50 mM NaCl, 5 mM DTT, and protease inhibitors (Mini EDTA-free protease inhibitor cocktail tablets, Boehringer Mannheim, Indianapolis, Ind.), 40 μM ATP, and an appropriate concentration of inhibitor. The reaction was allowed to continue for 30 minutes at room temperature. Plates were washed, blocked 30 minutes at room temperature (0.5% bovine serum albumin in DELFIA Assay Buffer, EG&G Wallac), and washed. One hundred microliter europium-conjugated antiphosphotyrosine antibody in DELFIA assay buffer was added to each well. Plates were incubated for 1 hour and decanted. One hundred microliter DELFIA enhancement solution (EG&G Wallac) was added and time-resolved fluorescence of the reactions determined using a VICTOR2 1420 multilable counter (EG&G Wallac). Compounds were tested from 10 through 0.0001 μM. c-Src was (Upstate Biotechnology, Lake Placid, N.Y.) was used at 3 units per reaction. The kinase domains from FGFR-1, VEGFR-2, Lck, and PDGF were purified from baculoviral vectors expression systems and were used in the assays at 20 nM.

For series [2], the target named is T2, VEGFR-2 (Homo sapiens, UniProt P35968).
T2 construct: The kinase domains from FGFR-1, VEGFR-2, Lck, and PDGF were purified from baculoviral vectors expression systems; made in house
The experiment in a line: Kinase inhibition assay (DELFIA), VEGF-2. It counts as biochemical. The settings on record: 40 μM ATP, kinase domain 20 nM. How it is done:
as §1, with “DELFIA” for “The inhibition activity of the compounds in Examples 8, 9, 10, 11, and 12 and Reference Compounds A and B were evaluated using the Dissociated Enhanced Lanthanide Fluoroimmuno Assay (DELFIA) (Frank Loganzo and Carolyn Hardy. A sensitive, time-resolved fluorometric assay for the detection of inhibitors of phosphotyrosine kinases. American Biotechnology Laboratory, December 1998). DELFIA”, “One hundred microliter DELFIA enhancement solution (EG&G Wallac) was added and time-resolved fluorescence of the reactions determined using a VICTOR2 1420 multilable counter (EG&G Wallac).” left out

In series [3] the target is T3, PDGFR (Mus musculus, UniProt P05622).
T3 construct: The kinase domains from FGFR-1, VEGFR-2, Lck, and PDGF were purified from baculoviral vectors expression systems and were used in the assays at 20 nM
The series is described as follows: Kinase inhibition assay (DELFIA), PDGF. Type of series: biochemical. The settings on record: 40 μM ATP, kinase domain 20 nM. The protocol:
as §1, with “Plates were washed, blocked 30 minutes at room temperature (0.5% bovine serum albumin in DELFIA Assay Buffer, EG&G Wallac), and washed. One hundred microliter europium-conjugated antiphosphotyrosine antibody in DELFIA assay buffer was added to each well. Plates were incubated for 1 hour and decanted.” left out, “Compounds were tested from 10 through 0.0001 μM. c-Src was (Upstate Biotechnology, Lake Placid, N.Y.) was used at 3 units per reaction. The kinase domains from FGFR-1, VEGFR-2, Lck, and PDGF were purified from baculoviral vectors expression systems and were used in the assays at 20 nM.” left out

Series [4] addresses T4, Lck (Homo sapiens, UniProt P06239).
T4 construct: The kinase domains from FGFR-1, VEGFR-2, Lck, and PDGF were purified from baculoviral vectors expression systems; made in house
The experiment in a line: Kinase inhibition assay (DELFIA), Lck. It counts as biochemical. The settings on record: 40 μM ATP, kinase domain 20 nM. How it is done:
as §1

The target in series [5] is T5, c-Src (Homo sapiens, UniProt P12931).
T5 construct: purchased Upstate Biotechnology, Lake Placid, N.Y
The series is described as follows: Kinase inhibition assay (DELFIA), c-Src. Type of series: biochemical. The settings on record: 40 μM ATP, c-Src 3 units per reaction. The protocol: as §1

The subject of series [6] is Human umbilical vein endothelial cells (HUVECs). The series is described as follows: Serum stimulated HUVEC cell proliferation (Sulphorhodamine B). It counts as cell-based. The protocol:
Human umbilical vein endothelial cells (HUVECs) (Clonetics, Palo Alto, Calif.) were seeded at 2000 cells per well in growth medium containing 2% serum (EGM, Clonetics) and allowed to attach overnight (37° C., 5% CO2, 100% humidity). C6 rat glioma cells (ATCC) were seeded at 600 cells per well and incubated in F10 medium (GIBCO, Gaithersburg, Md.) supplemented with 15% horse serum, 2.5% fetal bovine serum, and 1 mM glutamine. A90 human ovarian cells (Dr. Kent Crickard, SUNY/AB Medical School) were seeded at 600 cells per well in RPMI1640 (GIBCO) plus 10% fetal bovine serum. Plates were incubated overnight (37° C., 5% CO2, 100% humidity) to allow the cells to attach. Test compound dilutions were added to the appropriate wells, and the incubation was continued for 4 additional days. Monolayers were fixed in 10% trichloroacetic acid (30 minutes at 4° C.), washed with distilled water, and stained with Sulphorhodamine B (0.075% in 1% acetic acid) (Sigma). Plates were washed in 1% acetic acid, and the bound dye was solubilized in 100 μL unbuffered Tris base. Absorbance was measured at 540 nm using a reference filter wavelength of 630 nm. Inhibitor potency (IC50) versus cellular proliferation was determined, and endothelial cell selectivity was assessed by comparing the inhibition of HUVEC proliferation to A90 and C6 tumor cell proliferation (Table 3).

Series [7] can be described thus: Metabolic stability, mice liver S9 fraction. The settings on record: mice liver S9, 5 μM, 37° C., 1.0 mM NADPH. Type of series: in vitro ADME. How it is done:
(§2) Compounds were individually incubated (5 μM in DMSO) with human and mice liver S9 fractions in 50 mM KHPO4 buffer at 37° C. in the presence of 1.0 mM NADPH and additional cofactors. At 0, 10, 20, and 40 minutes, 100 μL aliquots were removed and added to 300 μL of acetonitrile. Standard curves were prepared in a similar manner with each compound. Samples were analyzed for parent concentration by LC-MS/MS. The in vitro metabolic half-life was determined from the concentration-time plots using WinNonlin. These in vitro data represent the rate of oxidative, hydrolytic, and conjugative metabolism.

The nature of series [8]: Metabolic stability, human liver S9 fraction. Type of series: in vitro ADME. The settings on record: human liver S9, 5 μM, 37° C., 1.0 mM NADPH. How it is done:
as §2

T1 sequence (P11362 478-767 limits assumed, species assumed): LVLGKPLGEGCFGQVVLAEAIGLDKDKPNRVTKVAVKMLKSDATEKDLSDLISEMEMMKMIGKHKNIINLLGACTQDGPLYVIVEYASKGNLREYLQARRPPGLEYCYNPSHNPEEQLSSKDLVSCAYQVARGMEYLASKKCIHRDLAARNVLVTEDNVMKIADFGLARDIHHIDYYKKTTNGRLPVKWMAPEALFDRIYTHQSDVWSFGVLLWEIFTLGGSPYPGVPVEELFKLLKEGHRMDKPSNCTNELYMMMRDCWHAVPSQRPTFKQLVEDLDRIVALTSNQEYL
T4 sequence (P06239 245-498 limits assumed, species assumed): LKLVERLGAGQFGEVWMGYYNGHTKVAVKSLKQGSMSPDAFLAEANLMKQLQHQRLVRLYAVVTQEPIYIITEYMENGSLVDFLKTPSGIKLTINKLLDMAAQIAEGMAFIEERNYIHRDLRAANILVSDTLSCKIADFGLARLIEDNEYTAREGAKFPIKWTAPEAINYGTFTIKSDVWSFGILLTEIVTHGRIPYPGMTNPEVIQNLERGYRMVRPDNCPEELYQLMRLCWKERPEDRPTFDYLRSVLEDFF
T3 sequence (P05622 553-1098): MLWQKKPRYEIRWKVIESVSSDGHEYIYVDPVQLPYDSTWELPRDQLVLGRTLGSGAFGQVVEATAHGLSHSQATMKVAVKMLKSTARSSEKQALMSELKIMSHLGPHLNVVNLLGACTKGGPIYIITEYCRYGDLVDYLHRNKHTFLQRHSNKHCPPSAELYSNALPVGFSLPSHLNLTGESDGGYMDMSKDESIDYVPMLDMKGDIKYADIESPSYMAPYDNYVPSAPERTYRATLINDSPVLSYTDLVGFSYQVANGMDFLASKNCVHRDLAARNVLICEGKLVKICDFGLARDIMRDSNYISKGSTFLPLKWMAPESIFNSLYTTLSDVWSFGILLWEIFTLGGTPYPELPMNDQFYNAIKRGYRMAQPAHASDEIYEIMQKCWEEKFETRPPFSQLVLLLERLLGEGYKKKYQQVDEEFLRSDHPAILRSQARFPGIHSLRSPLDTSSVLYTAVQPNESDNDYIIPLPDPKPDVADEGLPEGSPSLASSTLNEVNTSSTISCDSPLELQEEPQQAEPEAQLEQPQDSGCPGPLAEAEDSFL
T2 sequence (P35968 834-1162 limits assumed, species assumed): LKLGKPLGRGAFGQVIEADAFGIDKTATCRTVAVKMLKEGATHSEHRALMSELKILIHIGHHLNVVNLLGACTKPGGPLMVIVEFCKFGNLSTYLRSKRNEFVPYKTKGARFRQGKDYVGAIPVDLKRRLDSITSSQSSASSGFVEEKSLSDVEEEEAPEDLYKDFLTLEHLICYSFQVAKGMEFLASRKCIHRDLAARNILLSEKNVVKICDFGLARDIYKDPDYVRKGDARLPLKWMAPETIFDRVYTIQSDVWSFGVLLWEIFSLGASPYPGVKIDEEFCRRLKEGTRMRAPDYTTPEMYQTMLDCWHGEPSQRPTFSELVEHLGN

What is called IC50 is the concentration that gives 50% inhibition. In general, Ki refers to the dissociation constant of the complex between target and ligand, obtained from inhibition or displacement. Read a low Ki as tighter binding. “6-(3,5-Dimethoxy-phenyl)-8-ethyl-2-(pyridin-4-ylamino)-8H-pyrido[2,3-d]pyrimidin-7-one [Example 8]”: the concentration for half-maximal inhibition (IC50) in series [1] is 0.009 µM; in series [2], 0.02 µM; in series [3], 2.54 µM; in series [5] it was 36.5 µM; in series [6] (2% serum growth medium, 4 days with compound), 0.009 µM. This substance also displayed a Ki in series [4] of 1.79 µM. The “selectivity for serum-stimulated endothelial cell proliferation” value in series [6] (HUVEC compared to A90 and C6 tumor cell proliferation) is on record as “selective inhibitors”. For the same substance, the “MS9 in vitro metabolic half-life” value in series [7] is above 3.33 h. Also, the “HS9 in vitro metabolic half-life” value in series [8] was above 3.33 h.
